Measurements: ChEMBL document CHEMBL3885881, “DrugMatrix”

Species: Rattus norvegicus
Test: DrugMatrix - Regimen: Daily Repeat
Format: toxicity, organism-based, Sprague-Dawley
Parameters: regimen Daily Repeat, gender Male, age 6-8 weeks
Conditions: in vivo, po, 17 mg/kg, route oral GAVAGE, dose level High, vehicle .5 % CMC; for ABSOLUTE BASOPHIL / ABSOLUTE EOSINOPHIL / ABSOLUTE LYMPHOCYTE / ABSOLUTE MONOCYTE / ABSOLUTE SEGMENTED NEUTROPHIL / BASOPHIL / EOSINOPHIL / ERYTHROCYTE COUNT / HEMATOCRIT / HEMOGLOBIN / LEUKOCYTE COUNT / LYMPHOCYTE / MEAN CORPUSCULAR HEMOGLOBIN / MEAN CORPUSCULAR HEMOGLOBIN CONCENTRATION / MONOCYTE / NEUTROPHIL / NUCLEATED RED BLOOD CELLS / PLATELET COUNT: tissue Blood; for ALANINE AMINOTRANSFERASE / ALBUMIN / ALKALINE PHOSPHATASE / ASPARTATE AMINOTRANSFERASE / BLOOD UREA NITROGEN / CARBON DIOXIDE / CHLORIDE / CHOLESTEROL / CREATININE / GLUCOSE / LACTATE DEHYDROGENASE / LIPASE / PHOSPHORUS / POTASSIUM / SODIUM / TOTAL BILIRUBIN / TOTAL PROTEIN / URIC ACID: tissue Plasma

O=C(Nc1c(Cl)cncc1Cl)c1ccc(OC(F)F)c(OCC2CC2)c1 [ROFLUMILAST]
ABSOLUTE BASOPHIL (96 h, time 4 day): 0 CELLS/uL
ABSOLUTE EOSINOPHIL (96 h, time 4 day): 0 CELLS/uL
ABSOLUTE LYMPHOCYTE (96 h, time 4 day): 3924 CELLS/uL
ABSOLUTE MONOCYTE (96 h, time 4 day): 981 CELLS/uL
ABSOLUTE SEGMENTED NEUTROPHIL (96 h, time 4 day): 16695 CELLS/uL
BASOPHIL (96 h, time 4 day): 0%
EOSINOPHIL (96 h, time 4 day): 0%
ERYTHROCYTE COUNT (96 h, time 4 day): 6.21 x10E6/uL
HEMATOCRIT (96 h, time 4 day): 36.1%
HEMOGLOBIN (96 h, time 4 day): 13.4 G/DL
LEUKOCYTE COUNT (96 h, time 4 day): 21.6 x10E3/uL
LYMPHOCYTE (96 h, time 4 day): 18%
MEAN CORPUSCULAR HEMOGLOBIN (96 h, time 4 day): 21.6 pg
MEAN CORPUSCULAR HEMOGLOBIN CONCENTRATION (96 h, time 4 day): 37.15 G/DL
MONOCYTE (96 h, time 4 day): 4.5%
NEUTROPHIL (96 h, time 4 day): 77.5%
NUCLEATED RED BLOOD CELLS (96 h, time 4 day): 0 /100WBC
PLATELET COUNT (96 h, time 4 day): 1458.5 x10E3/uL
ALANINE AMINOTRANSFERASE (96 h, time 4 day): 19 u/L
ALBUMIN (96 h, time 4 day): 2.45 G/DL
ALKALINE PHOSPHATASE (96 h, time 4 day): 153.5 u/L
ASPARTATE AMINOTRANSFERASE (96 h, time 4 day): 51.5 u/L
BLOOD UREA NITROGEN (96 h, time 4 day): 24 mg/dL
CARBON DIOXIDE (96 h, time 4 day): 32 mmol/L
CHLORIDE (96 h, time 4 day): 96.5 MEQ/L
CHOLESTEROL (96 h, time 4 day): 50.5 mg/dL
CREATININE (96 h, time 4 day): 0.16 mg/dL
GLUCOSE (96 h, time 4 day): 112.5 mg/dL
LACTATE DEHYDROGENASE (96 h, time 4 day): 173 u/L
LIPASE (96 h, time 4 day): 7.5 u/L
PHOSPHORUS (96 h, time 4 day): 10.1 mg/dL
POTASSIUM (96 h, time 4 day): 5.21 MEQ/L
SODIUM (96 h, time 4 day): 143.95 MEQ/L
TOTAL BILIRUBIN (96 h, time 4 day): 0.15 mg/dL
TOTAL PROTEIN (96 h, time 4 day): 6 G/DL
URIC ACID (96 h, time 4 day): 1.7 mg/dL
ABSOLUTE BASOPHIL ([…], time 14 day): 0 CELLS/uL
ABSOLUTE EOSINOPHIL ([…], time 14 day): 0 CELLS/uL
ABSOLUTE LYMPHOCYTE ([…], time 14 day): 3828.67 CELLS/uL
ABSOLUTE MONOCYTE ([…], time 14 day): 852.67 CELLS/uL
ABSOLUTE SEGMENTED NEUTROPHIL ([…], time 14 day): 8985.33 CELLS/uL
BASOPHIL ([…], time 14 day): 0%
EOSINOPHIL ([…], time 14 day): 0%
ERYTHROCYTE COUNT ([…], time 14 day): 7.38 x10E6/uL
HEMATOCRIT ([…], time 14 day): 41.2%
HEMOGLOBIN ([…], time 14 day): 14.73 G/DL
LEUKOCYTE COUNT ([…], time 14 day): 13.67 x10E3/uL
LYMPHOCYTE ([…], time 14 day): 26%
MEAN CORPUSCULAR HEMOGLOBIN ([…], time 14 day): 20 pg
MEAN CORPUSCULAR HEMOGLOBIN CONCENTRATION ([…], time 14 day): 35.83 G/DL
MONOCYTE ([…], time 14 day): 6.33%
NEUTROPHIL ([…], time 14 day): 67.67%
NUCLEATED RED BLOOD CELLS ([…], time 14 day): 0 /100WBC
PLATELET COUNT ([…], time 14 day): 2047.33 x10E3/uL
ALANINE AMINOTRANSFERASE ([…], time 14 day): 33 u/L
ALBUMIN ([…], time 14 day): 3.1 G/DL
ALKALINE PHOSPHATASE ([…], time 14 day): 109 u/L
ASPARTATE AMINOTRANSFERASE ([…], time 14 day): 103.67 u/L
BLOOD UREA NITROGEN ([…], time 14 day): 25 mg/dL
CARBON DIOXIDE ([…], time 14 day): 30 mmol/L
CHLORIDE ([…], time 14 day): 97.5 MEQ/L
CHOLESTEROL ([…], time 14 day): 42.5 mg/dL
CREATININE ([…], time 14 day): 0.19 mg/dL
GLUCOSE ([…], time 14 day): 128 mg/dL
LACTATE DEHYDROGENASE ([…], time 14 day): 569 u/L
LIPASE ([…], time 14 day): 10 u/L
PHOSPHORUS ([…], time 14 day): 9.15 mg/dL
POTASSIUM ([…], time 14 day): 5.72 MEQ/L
SODIUM ([…], time 14 day): 142.95 MEQ/L
TOTAL BILIRUBIN ([…], time 14 day): 0.1 mg/dL
TOTAL PROTEIN ([…], time 14 day): 6.25 G/DL
URIC ACID ([…], time 14 day): 1.7 mg/dL
